Patent publication US10851073B2, “Protein tyrosine phosphatase inhibitors and methods of use thereof” (Calico Life Sciences LLC, priority 2019, dated 2020)

biological target: T1, His tagged PTPN2 (TC45) protein (Homo sapiens, UniProt P17706); assay: Mobility shift assay used to determine potency of PTPN2 inhibitors; type: biochemical; conditions: enzyme 0.5 nM, substrate 2 μM; read-out: PTPN2 MSA IC50
T1 construct: made in house
T1 sequence (P17706 with tags, fused parts or gaps isoform P17706-2): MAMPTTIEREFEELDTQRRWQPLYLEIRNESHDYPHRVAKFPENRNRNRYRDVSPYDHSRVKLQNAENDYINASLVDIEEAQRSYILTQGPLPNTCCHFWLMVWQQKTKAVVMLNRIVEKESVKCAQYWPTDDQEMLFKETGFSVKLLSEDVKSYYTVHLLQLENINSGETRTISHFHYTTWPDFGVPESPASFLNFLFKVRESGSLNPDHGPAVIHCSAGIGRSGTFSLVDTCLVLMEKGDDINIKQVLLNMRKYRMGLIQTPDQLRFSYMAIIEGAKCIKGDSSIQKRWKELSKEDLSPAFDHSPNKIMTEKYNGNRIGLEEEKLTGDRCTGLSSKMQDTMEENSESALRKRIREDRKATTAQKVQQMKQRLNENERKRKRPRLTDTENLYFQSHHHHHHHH
Procedure: Example 227: Mobility Shift Assay Used to Determine Potency of PTPN2 Inhibitors
Compound activity was determined using in house His tagged PTPN2 (TC45) protein (SEQ ID NO: 1) in an in vitro enzymatic reaction. The enzymatic assay used to determine activity was a mobility shift assay using a LabChip EZ Reader by Caliper Life Sciences. The enzymatic reaction was carried out in assay buffer (50 mM HEPES pH 7.5, 1 mM EGTA, 10 mM EDTA, 0.01% Tween® 20, and 2 mM DTT). The compounds were dispensed on a white 384 well ProxiPlate™ (PerkinElmer Catalog #6008289) plate using the Labcyte Echo at varying concentrations (12 point, 1:3 dilution). The enzyme (at 0.5 nM) was incubated with compound for 10 minutes at room temperature. Then the substrate (phosphorylated insulin receptor probe sequence: ((OG488)-(NH—CH2—CH2—O—CH2—CH2—O—CH2—CO)-T-R-D-I-(PY)-E-T-D-Y-Y-R-K-K-NH2) (SEQ ID NO: 2) was added at 2 μM to the plates and incubated for another 10 minutes at room temperature. Finally, a quench solution (water and 4-bromo-3-(2-oxo-2-propoxyethoxy)-5-(3-{[1-(phenylmethanesulfonyl)piperidin-4-yl]amino}phenyl)thiophene-2-carboxylic acid) was added to the plates, which were then run on the EZ Reader (excitation 488 nm, emission 530 nm) to measure % conversion (the amount of phosphorylated substrate which was de-phosphorylated by PTPN2). […] The % inhibition was then used to calculate the IC50 values.

SMILES | IC50 [µM]
O=C1CN(c2c(O)cc3c(c2F)CC(NCC2CC2)CC3)S(=O)(=O)N1 (stereo not drawn) [Compound 103, 5-{7-[(cyclopropylmethyl)amino]-1-fluoro-3-hydroxy-5,6,7,8-tetrahydronaphthalen-2-yl}-1λ^6,2,5-thiadiazolidine-1,1,3-trione] | 0.01 to 0.1
O=C1CN(c2c(O)cc3c(c2F)CN(C(=O)NCC2CCCO2)CC3)S(=O)(=O)N1 (stereo not drawn) [Compound 263, 8-fluoro-6-hydroxy-N-[(oxolan-2-yl)methyl]-7-(1,1,4-trioxo-1λ^6,2,5-thiadiazolidin-2-yl)-3,4-dihydroisoquinoline-2(1H)-carboxamide] | 0.01 to 0.1
CC(C)CCCC1CCc2cc(O)c(N3CC(=O)NS3(=O)=O)c(F)c2C1 (stereo not drawn) [Compound 323, 5-[1-fluoro-3-hydroxy-7-(4-methylpentyl)-5,6,7,8-tetrahydronaphthalen-2-yl]-1λ^6,2,5-thiadiazolidine-1,1,3-trione] | 0.001 to 0.01
O=C1CN(c2c(O)cc3c(c2F)CC(NCCOC(F)(F)F)CC3)S(=O)(=O)N1 (stereo not drawn) [Compound 169, 5-(1-fluoro-3-hydroxy-7-{[2-(trifluoromethoxy)ethyl]amino}-5,6,7,8-tetrahydronaphthalen-2-yl)-1λ^6,2,5-thiadiazolidine-1,1,3-trione] | 0.01 to 0.1
COC(CCNC1CCc2cc(O)c(N3CC(=O)NS3(=O)=O)c(F)c2C1)C(F)(F)F (stereo not drawn) [Compound 152, 5-{1-fluoro-3-hydroxy-7-[(4,4,4-trifluoro-3-methoxybutyl)amino]-5,6,7,8-tetrahydronaphthalen-2-yl}-1λ^6,2,5-thiadiazolidine-1,1,3-trione] | 0.001 to 0.01
NCC1Cc2cc(O)c(N3CC(=O)NS3(=O)=O)c(F)c2C1 (stereo not drawn) [Compound 267, 5-[2-(aminomethyl)-4-fluoro-6-hydroxy-2,3-dihydro-1H-inden-5-yl]-1λ^6,2,5-thiadiazolidine-1,1,3-trione 2,2,2-trifluoroacetate] | 0.01 to 0.1

system: B16F10 mouse melanoma cells; assay: B16F10 IFNγ-induced cellular growth inhibition assay; type: cell-based; conditions: B16-F10, with 0.5 ng/mL IFNγ, read-out: B16F10 GI IC50
Procedure: Example 229: B16F10 IFNγ-Induced Cellular Growth Inhibition Assay B16F10 mouse melanoma cells (ATCC Cat^# CRL-6475, Manassas, Va.) were seeded at a density of 500 cells per well in a 384-well clear bottom plate (Corning Cat^#3765, Corning, N.Y.) in 25 μL total volume of DMEM+10% FBS (Sigma Cat^# D6429 and Sigma Cat^# F4135, St. Louis, Mo.). Cells were allowed to adhere overnight at 37° C.+5% CO2. On the following day, 12.5 μL of mouse IFNγ (RD systems Cat^#485-MI/CF, Minneapolis, Minn.) was added to half of the plate (columns 13-24) at a concentration of 2 ng/mL for a final assay concentration of 0.5 ng/mL of IFNγ. Media only (12.5 μL of DMEM+10% FBS) was added to the remainder of the plate (columns 1-12). Next, compounds resuspended in DMSO (Sigma Cat^# D2650) at 100 mM were diluted in semi-log dilutions in DMSO ranging from 100 mM to 0.001 mM and DMSO only controls were included. The compound/DMSO dilutions were further diluted 1:250 in DMEM+10% FBS, and 12.5 μL of these dilutions were added in triplicates to cells of both treatment arms (with and without IFNγ). Final compound concentrations ranged from 100 μM to 0.001 μM with a final DMSO concentration of 0.1%. Compounds were only dosed in the inner 240 wells, avoiding the outer 2-well perimeter of the plate to minim/ze edge effects. Finally, the plate was loaded into an IncuCyte® S3 Live Cell Analysis System (Essen Bioscience-Sartorius, Ann Arbor, Mich.) maintained in a 37° C.+5% CO2 incubator, allowed to equilibrate for 2 hours, and imaged every 6 hours for 5 days. Confluence over time for compound dilutions in the presence and absence of IFNγ was measured. Growth inhibition values were obtained when the “DMSO/no IFNγ” control reached confluence >95%. At these time points, for each compound the percent growth inhibition at every compound dose level was calculated relative to the “DMSO/with IFNγ” control and used to determine the IC50.

IC50 [µM] | SMILES
1 to 10 | O=C1CN(c2c(O)cc3c(c2F)CC(NCC2CC2)CC3)S(=O)(=O)N1 (stereo not drawn) [Compound 103, 5-{7-[(cyclopropylmethyl)amino]-1-fluoro-3-hydroxy-5,6,7,8-tetrahydronaphthalen-2-yl}-1λ^6,2,5-thiadiazolidine-1,1,3-trione]
10 to 100 | O=C1CN(c2c(O)cc3c(c2F)CC(NCCOC(F)(F)F)CC3)S(=O)(=O)N1 (stereo not drawn) [Compound 169, 5-(1-fluoro-3-hydroxy-7-{[2-(trifluoromethoxy)ethyl]amino}-5,6,7,8-tetrahydronaphthalen-2-yl)-1λ^6,2,5-thiadiazolidine-1,1,3-trione]
10 to 100 | Cn1cc(CCN2CCc3cc(O)c(N4CC(=O)NS4(=O)=O)c(F)c3C2)cn1 [Compound 252, 5-{8-fluoro-6-hydroxy-2-[2-(1-methyl-1H-pyrazol-4-yl)ethyl]-1,2,3,4-tetrahydroisoquinolin-7-yl}-1λ^6,2,5-thiadiazolidine-1,1,3-trione]
10 to 100 | O=C1CN(c2c(O)cc3c(c2F)CN(CCN2CCNCC2)CC3)S(=O)(=O)N1 [Compound 247, 5-{8-fluoro-6-hydroxy-2-[2-(piperazin-1-yl)ethyl]-1,2,3,4-tetrahydroisoquinolin-7-yl}-1λ^6,2,5-thiadiazolidine-1,1,3-trione]
10 to 100 | O=C1CN(c2c(O)cc3c(c2F)CCCC3)S(=O)(=O)N1 [Compound 108, 5-(1-fluoro-3-hydroxy-5,6,7,8-tetrahydronaphthalen-2-yl)-1λ^6,2,5-thiadiazolidine-1,1,3-trione]
> 100 | O=C1CN(c2c(O)cc3c(c2F)CN(CCCCC(F)(F)F)CC3)S(=O)(=O)N1 [Compound 153, 5-[8-fluoro-6-hydroxy-2-(5,5,5-trifluoropentyl)-1,2,3,4-tetrahydroisoquinolin-7-yl]-1λ^6,2,5-thiadiazolidine-1,1,3-trione]
> 100 | N[C@H](CCC1CCCCC1)C(=O)N1CCc2cc(O)c(N3CC(=O)NS3(=O)=O)c(F)c2C1 [Compound 250, 5-{2-[(2R)-2-amino-4-cyclohexylbutanoyl]-8-fluoro-6-hydroxy-1,2,3,4-tetrahydroisoquinolin-7-yl}-1λ^6,2,5-thiadiazolidine-1,1,3-trione]
1 to 10 | CC(C)OCCCN1CCc2cc(O)c(N3CC(=O)NS3(=O)=O)c(F)c2C1 [Compound 251, 5-(8-fluoro-6-hydroxy-2-{3-[(propan-2-yl)oxy]propyl}-1,2,3,4-tetrahydroisoquinolin-7-yl)-1λ^6,2,5-thiadiazolidine-1,1,3-trione]
1 to 10 | O=C1CN(c2c(O)cc3c(c2F)CN(CC[C@H]2C[C@@H](OC(F)(F)F)C2)CC3)S(=O)(=O)N1 [Compound 231, 5-(8-fluoro-6-hydroxy-2-{2-[(1s,3r)-3-(trifluoromethoxy)cyclobutyl]ethyl}-1,2,3,4-tetrahydroisoquinolin-7-yl)-1λ^6,2,5-thiadiazolidine-1,1,3-trione]
10 to 100 | O=C1CN(c2c(O)cc3c(c2F)CC(NCc2ccccn2)CC3)S(=O)(=O)N1 (stereo not drawn) [Compound 155, 5-(1-fluoro-3-hydroxy-7-{[(pyridin-2-yl)methyl]amino}-5,6,7,8-tetrahydronaphthalen-2-yl)-1λ^6,2,5-thiadiazolidine-1,1,3-trione]
< 1 | O=C1CN(c2c(O)cc3c(c2F)C[C@H](NCCC2CC(F)(F)C2)CC3)S(=O)(=O)N1 [Compound 202, 5-[(7R)-7-{[2-(3,3-difluorocyclobutyl)ethyl]amino}-1-fluoro-3-hydroxy-5,6,7,8-tetrahydronaphthalen-2-yl]-1λ^6,2,5-thiadiazolidine-1,1,3-trione]
10 to 100 | O=C1CN(c2c(O)cc3c(c2F)CN(C(=O)NCC2CC(F)(F)C2)CC3)S(=O)(=O)N1 [Compound 262, N-[(3,3-difluorocyclobutyl)methyl]-8-fluoro-6-hydroxy-7-(1,1,4-trioxo-1λ^6,2,5-thiadiazolidin-2-yl)-3,4-dihydroisoquinoline-2(1H)-carboxamide]
10 to 100 | Cc1noc(C)c1CN1CCc2cc(O)c(N3CC(=O)NS3(=O)=O)c(F)c2C1 [Compound 208, 5-{2-[(3,5-dimethyl-1,2-oxazol-4-yl)methyl]-8-fluoro-6-hydroxy-1,2,3,4-tetrahydroisoquinolin-7-yl}-1λ^6,2,5-thiadiazolidine-1,1,3-trione]
1 to 10 | C[C@H](N)CN1CCc2cc(O)c(N3CC(=O)NS3(=O)=O)c(F)c2C1 [Compound 245, 5-{2-[(2S)-2-aminopropyl]-8-fluoro-6-hydroxy-1,2,3,4-tetrahydroisoquinolin-7-yl}-1λ^6,2,5-thiadiazolidine-1,1,3-trione]

same assay, conditions: B16-F10, with 0.5 ng/mL IFNγ, read-out: B16F10 Growth Inhibition IC50

IC50 [µM] | SMILES
4.1 | CC(C)(C)CCNc1ccc2cc(O)c(N3CC(=O)NS3(=O)=O)c(F)c2c1 [Compound W]
